Measurements: US5441941A, “1,2-dihydroellipticines with activity against CNS specific cancer” (The United States of America as represented by the …, priority 1993, dated 1995)

Experiments:
DLD-1 = assay: cells; conditions: Homo sapiens
Human tumor cell lines = assay: NCI in vitro screen, overall result; conditions: Tables I and II
HL-60 (TB) = assay: NCI in vitro screen, SRB percent growth, Leukemia
K-562 = assay: NCI in vitro screen, SRB percent growth, Leukemia
M14 = assay: NCI in vitro screen, SRB percent growth, Melanoma
M19-MEL = assay: NCI in vitro screen, SRB percent growth, Melanoma
SF-268 = assay: NCI in vitro screen, SRB percent growth, CNS Cancer
SNB-78 = assay: as above
XF 498 = assay: as above
COLO 205 = assay: NCI in vitro screen, SRB percent growth, Colon Cancer
HCT-15 = assay: as above
HT29 = assay: as above
KM12 = assay: as above
CAKI-1 = assay: NCI in vitro screen, SRB percent growth, Renal Cancer
TK-10 = assay: as above
SK-OV-3 = assay: NCI in vitro screen, SRB percent growth, Ovarian Cancer
A549/ATCC = assay: NCI in vitro screen, SRB percent growth, Non-Small Cell Lung Cancer
[1] = DLD-1, read-out: Percent Growth
[2] = Log10 Concentration -4.0, 100 µM
[3] = Log10 Concentration -7.0, 0.1 µM

SMILES: Cc1ccc2[nH]c3c(C)c4c(c(C)c3c2c1)CN(C)C=C4 [Formula XI]
- GI50 (DLD-1; DLD-1): 1.48 µM
- CC50 (DLD-1; DLD-1, read-out: LC-50): 59 µM
- activity at 0.01 µM (DLD-1; [1]): 102%
- activity at 0.1 µM (DLD-1; [1]): 93%
- activity at 1 µM (DLD-1; [1]): 58%
- activity at 10 µM (DLD-1; [1]): 13%
- activity at 100 µM (DLD-1; [1]): -69%
- IC (TGI) (DLD-1; DLD-1, read-out: TGI): 14.5 µM
- effect against many kinds of cancer (Human tumor cell lines): effective against many kinds of cancer
- Percent Growth (HL-60 (TB); [2]): -30%
- Percent Growth (HL-60 (TB); Log10 Concentration -5.0): 25%
- Percent Growth (HL-60 (TB); Log10 Concentration -6.0, 1 µM): 102%
- Percent Growth (HL-60 (TB); Log10 Concentration -8.0): 111%
- TGI (HL-60 (TB); PG=0): 28.7 µM
- GI50 (HL-60 (TB); PG=+50): 4.8 µM
- CC50 (HL-60 (TB); read-out: LC-50, PG=-50): > 100 µM
- Percent Growth (K-562; [2]): 2%
- Percent Growth (K-562; Log10 Concentration -5.0): 6%
- Percent Growth (K-562; Log10 Concentration -6.0, 1 µM): 53%
- Percent Growth (K-562; [3]): 83%
- Percent Growth (K-562; Log10 Concentration -8.0): 95%
- TGI (K-562; PG=0): > 100 µM
- GI50 (K-562; PG=+50): 1.17 µM
- CC50 (K-562; read-out: LC-50, PG=-50): > 100 µM
- Percent Growth (M14; [2]): -93%
- Percent Growth (M14; Log10 Concentration -5.0): 6%
- Percent Growth (M14; Log10 Concentration -6.0, 1 µM): 103%
- Percent Growth (M14; [3]): 94%
- Percent Growth (M14; Log10 Concentration -8.0): 106%
- TGI (M14; PG=0): 11.4 µM
- GI50 (M14; PG=+50): 3.52 µM
- CC50 (M14; read-out: LC-50, PG=-50): 36.8 µM
- Percent Growth (M19-MEL; [2]): -93%
- Percent Growth (M19-MEL; Log10 Concentration -5.0): -91%
- Percent Growth (M19-MEL; Log10 Concentration -6.0, 1 µM): 38%
- Percent Growth (M19-MEL; [3]): 93%
- Percent Growth (M19-MEL; Log10 Concentration -8.0): 94%
- TGI (M19-MEL; PG=0): 1.98 µM
- GI50 (M19-MEL; PG=+50): 0.605 µM
- CC50 (M19-MEL; read-out: LC-50, PG=-50): 4.83 µM
- Percent Growth (SF-268; [2]): -83%
- Percent Growth (SF-268; Log10 Concentration -5.0): -94%
- Percent Growth (SF-268; Log10 Concentration -6.0, 1 µM): -39%
- Percent Growth (SF-268; [3]): 96%
- Percent Growth (SF-268; Log10 Concentration -8.0): 101%
- TGI (SF-268; PG=0): 0.514 µM
- GI50 (SF-268; PG=+50): 0.218 µM
- CC50 (SF-268; read-out: LC-50, PG=-50): 1.6 µM
- Percent Growth (SNB-78; [2]): -75%
- Percent Growth (SNB-78; Log10 Concentration -5.0): -33%
- Percent Growth (SNB-78; Log10 Concentration -6.0, 1 µM): 38%
- Percent Growth (SNB-78; [3]): 128%
- Percent Growth (SNB-78; Log10 Concentration -8.0): 131%
- TGI (SNB-78; PG=0): 3.41 µM
- GI50 (SNB-78; PG=+50): 0.738 µM
- CC50 (SNB-78; read-out: LC-50, PG=-50): 25.2 µM
- Percent Growth (XF 498; [2]): -57%
- Percent Growth (XF 498; Log10 Concentration -5.0): -33%
- Percent Growth (XF 498; Log10 Concentration -6.0, 1 µM): 46%
- Percent Growth (XF 498; [3]): 98%
- Percent Growth (XF 498; Log10 Concentration -8.0): 101%
- TGI (XF 498; PG=0): 3.84 µM
- GI50 (XF 498; PG=+50): 0.851 µM
- CC50 (XF 498; read-out: LC-50, PG=-50): 50.4 µM
- Percent Growth (COLO 205; [2]): -28%
- Percent Growth (COLO 205; Log10 Concentration -5.0): -23%
- Percent Growth (COLO 205; Log10 Concentration -6.0, 1 µM): 24%
- Percent Growth (COLO 205; [3]): 92%
- Percent Growth (COLO 205; Log10 Concentration -8.0): 119%
- TGI (COLO 205; PG=0): 3.2 µM
- GI50 (COLO 205; PG=+50): 0.416 µM
- CC50 (COLO 205; read-out: LC-50, PG=-50): > 100 µM
- Percent Growth (HCT-15; [2]): -87%
- Percent Growth (HCT-15; Log10 Concentration -5.0): 76%
- Percent Growth (HCT-15; Log10 Concentration -6.0, 1 µM): 95%
- Percent Growth (HCT-15; [3]): 102%
- Percent Growth (HCT-15; Log10 Concentration -8.0): 111%
- TGI (HCT-15; PG=0): 29.3 µM
- GI50 (HCT-15; PG=+50): 14.5 µM
- CC50 (HCT-15; read-out: LC-50, PG=-50): 59.6 µM
- Percent Growth (HT29; [2]): -93%
- Percent Growth (HT29; Log10 Concentration -5.0): 4%
- Percent Growth (HT29; Log10 Concentration -6.0, 1 µM): 82%
- Percent Growth (HT29; [3]): 95%
- Percent Growth (HT29; Log10 Concentration -8.0): 99%
- TGI (HT29; PG=0): 11.1 µM
- GI50 (HT29; PG=+50): 2.57 µM
- CC50 (HT29; read-out: LC-50, PG=-50): 36 µM
- Percent Growth (KM12; [2]): -93%
- Percent Growth (KM12; Log10 Concentration -5.0): -48%
- Percent Growth (KM12; Log10 Concentration -6.0, 1 µM): 38%
- Percent Growth (KM12; [3]): 95%
- Percent Growth (KM12; Log10 Concentration -8.0): 97%
- TGI (KM12; PG=0): 2.78 µM
- GI50 (KM12; PG=+50): 0.622 µM
- CC50 (KM12; read-out: LC-50, PG=-50): 11 µM
- Percent Growth (CAKI-1; [2]): -89%
- Percent Growth (CAKI-1; Log10 Concentration -6.0, 1 µM): 56%
- Percent Growth (CAKI-1; [3]): 106%
- Percent Growth (CAKI-1; Log10 Concentration -8.0): 116%
- TGI (CAKI-1; PG=0): 5.89 µM
- GI50 (CAKI-1; PG=+50): 1.21 µM
- CC50 (CAKI-1; read-out: LC-50, PG=-50): 28.8 µM
- Percent Growth (TK-10; [2]): -93%
- Percent Growth (TK-10; Log10 Concentration -5.0): 49%
- Percent Growth (TK-10; Log10 Concentration -6.0, 1 µM): 90%
- Percent Growth (TK-10; [3]): 101%
- Percent Growth (TK-10; Log10 Concentration -8.0): 103%
- TGI (TK-10; PG=0): 22.1 µM
- GI50 (TK-10; PG=+50): 9.46 µM
- CC50 (TK-10; read-out: LC-50, PG=-50): 49.6 µM
- Percent Growth (SK-OV-3; [2]): -58%
- Percent Growth (SK-OV-3; Log10 Concentration -5.0): -16%
- Percent Growth (SK-OV-3; Log10 Concentration -6.0, 1 µM): 36%
- Percent Growth (SK-OV-3; [3]): 59%
- Percent Growth (SK-OV-3; Log10 Concentration -8.0): 87%
- TGI (SK-OV-3; PG=0): 4.87 µM
- GI50 (SK-OV-3; PG=+50): 0.25 µM
- CC50 (SK-OV-3; read-out: LC-50, PG=-50): 63.3 µM
- Percent Growth (A549/ATCC; [2]): -66%
- Percent Growth (A549/ATCC; Log10 Concentration -5.0): -15%
- Percent Growth (A549/ATCC; Log10 Concentration -6.0, 1 µM): 33%
- Percent Growth (A549/ATCC; [3]): 86%
- Percent Growth (A549/ATCC; Log10 Concentration -8.0): 96%
- TGI (A549/ATCC; PG=0): 4.9 µM
- GI50 (A549/ATCC; PG=+50): 0.469 µM
- CC50 (A549/ATCC; read-out: LC-50, PG=-50): 48.5 µM
